biological target: T1, P2X7 receptor (Homo sapiens, UniProt Q99572); assay: P2X7 calcium mobilization assay, high throughput, antagonist activity (Example 4A); assay type: cell-based; conditions: not given
T1 construct: host or cells: SH-SY5Y
T1 sequence (Q99572 1-595): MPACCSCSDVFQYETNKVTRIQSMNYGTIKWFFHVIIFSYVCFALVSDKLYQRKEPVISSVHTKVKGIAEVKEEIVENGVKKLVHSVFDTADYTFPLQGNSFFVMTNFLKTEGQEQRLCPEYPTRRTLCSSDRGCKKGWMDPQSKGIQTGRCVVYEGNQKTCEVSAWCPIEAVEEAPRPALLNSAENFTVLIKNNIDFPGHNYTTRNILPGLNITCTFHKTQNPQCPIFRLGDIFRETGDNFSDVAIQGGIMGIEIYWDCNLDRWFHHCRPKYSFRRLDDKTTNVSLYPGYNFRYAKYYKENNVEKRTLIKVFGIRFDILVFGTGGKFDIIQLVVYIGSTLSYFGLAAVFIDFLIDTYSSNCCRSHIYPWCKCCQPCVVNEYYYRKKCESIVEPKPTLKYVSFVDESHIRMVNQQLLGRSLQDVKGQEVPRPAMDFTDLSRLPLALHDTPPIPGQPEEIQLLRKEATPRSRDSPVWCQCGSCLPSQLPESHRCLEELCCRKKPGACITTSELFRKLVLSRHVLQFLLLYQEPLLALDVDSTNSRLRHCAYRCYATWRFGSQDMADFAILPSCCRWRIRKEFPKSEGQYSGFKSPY
Procedure, shortened: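 100,000 cells/well, plated day -1. Dye 1 h → rinse → compound 1 h, RT → FLIPR^TETRA Ca2+ mobilization. Max RFU minus mean negative control (no agonist); mean agonist-well max as positive control.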

SMILES | IC50 [nM]
NCCNCc1cn2c(C(=O)NCC34CC5CC(CC(C5)C3)C4)cccc2n1 [Compound 122, N-(adamantan-1-ylmethyl)-2-{[(2-aminoethyl)amino]methyl}imi-dazo[1,2-a]pyridine-5-carboxamide] | < 2000

same assay, conditions: 50% decrease in the fluorescence response of cells exposed to 80 μM 2′(3′)-O-(4-benzoyl-benzoyl)adenosine 5′-triphosphate; Example 4A; read-out: IC50

IC50 [nM] | SMILES
< 2000 | O=C(NCC12CC3CC(CC(C3)C1)C2)c1cccc2nc(CSc3ncc[nH]3)cn12 [Compound 542, N-(adamantan-1-ylmethyl)-2-[(1H-imidazol-2-ylthio)methyl] imidazo [1,2-a]pyridine-5-carboxamide]
< 2000 | COCCN(C(=O)Cc1cn2c(C(=O)NC[C@@H]3CC[C@@H]4C[C@H]3C4(C)C)cccc2n1)C1CCNCC1 [Compound 567, N-{[(1R,2R,5R)-6,6-dimethylbicyclo[3.1.1]hept-2-yl]methyl}-2-{2-[(2-methoxyethyl) (piperidin-4-yl)amino]-2-oxoethyl} imidazo[1,2-a]pyridine-5-carboxamide]
< 2000 | O=C(CC12CC3CC(CC(C3)C1)C2)Nc1cccc2nc(C(=O)N3CC[C@H](O)C3)cn12 [Compound 419, 2-adamantan-1-yl-N-(2-{[(3S)-3-hydroxypyrrolidin-1-yl]carbonyl}imidazo [1,2-a]pyridin-5-yl)acetamide]
< 2000 | CCN(C)C(=O)c1cn2c(C(=O)NC[C@@H]3CC[C@H]4C[C@@H]3C4(C)C)cccc2n1 [Compound 469, 5-N-{[(1S,2R,5S)-6,6-dimethylbicyclo[3.1.1]hept-2-yl]methyl}-2-N-ethyl-2-N-methylimidazo[1,2-a]pyridine-2,5-dicarboxamide]

same assay, conditions: 50% decrease in the fluorescence response of cells exposed to 80 μM of 2′(3′)-O-(4-benzoyl-benzoyl)adenosine 5′-triphosphate; Example 4A; read-out: IC50

IC50 [nM] | SMILES
< 2000 | CC(C)CC(CNC(=O)c1cccc2nc(CC(=O)NC3CCCC3)cn12)c1ccc(Cl)cc1 (stereo not drawn) [Compound 794, N-[2-(4-chlorophenyl)-4-methylpentyl]-2-[2-(cyclopentylamino)-2-oxoethyl]imidazo [1,2-a]pyridine-5-carboxamide]
< 2000 | CC(C)CC(CNC(=O)c1cccc2nc(CC(=O)NCC(F)(F)F)cn12)c1ccc(Cl)cc1 (stereo not drawn) [Compound 796, N-[2-(4-chlorophenyl)-4-methylpentyl]-2-{2-oxo-2-[(2,2,2-trifluoroethyl)amino]ethyl} imidazo[1,2-a] pyridine-5-carboxamide]
< 2000 | CC(C)(C)OC(=O)Nc1cn2c(C(=O)NCC34CC5CC(CC(C5)C3)C4)cccc2n1 [Compound 788, tert-butyl {5-[(adamantan-1-ylmethyl)carbamoyl]imidazo[1,2-a]pyridin-2-yl}carbamate]
< 2000 | O=C(NCC12CC3CC(CC(C3)C1)C2)c1cccc2nc(Cn3nnc(-c4ccccn4)n3)cn12 [Compound 816, N-(adamantan-1-ylmethyl)-2-[(5-pyridin-2-yl-2H-tetrazol-2-yl)methyl]imidazo [1,2-a]pyridine-5-carboxamide]

same assay, conditions: 50% decrease in the fluorescence response of cells exposed to 80 μM of 2′(3′)-O-(4-benzoyl-benzoyl)adenosine 5′-triphosphate; determined as in Example 4A; read-out: IC50

IC50 [nM] | SMILES
< 2000 | CCCC(C(=O)O)c1cn2c(C(=O)NCC34CC5CC(CC(C5)C3)C4)cccc2n1 (stereo not drawn) [Compound 909, 2-{5-[(adamantan-1-ylmethyl)carbamoyl]imidazo[1,2-a]pyridin-2-yl}pentanoic acid]
< 2000 | O=C(NCC1(c2ccc(Cl)cc2)CCCCC1)c1cccc2nc(C(Cc3ccccn3)C(=O)O)cn12 (stereo not drawn) [Compound 937, 2-[5-({[1-(4-chlorophenyl)cyclohexyl]methyl}carbamoyl)imidazo[1,2-a]pyridin-2-yl]-3-pyridin-2-ylpropanoic acid]
< 2000 | O=C(NCC1(c2cccnc2)CCCCC1)c1cccc2nc(Cn3nnc(CCO)n3)cn12 [Compound 921, 2-{[5-(2-hydroxyethyl)-2H-tetrazol-2-yl]methyl}-N-[(1-pyridin-3-ylcyclohexyl)methyl] imidazo[1,2-a] pyridine-5-carboxamide]
< 2000 | CC(C)CC(CNC(=O)c1cccc2nc(CC(=O)N3CCC[C@@H](N)C3)cn12)c1ccc(Cl)cc1 (stereo partly drawn) [Compound 839, 2-{2-[(3R)-3-aminopiperidin-1-yl]-2-oxoethyl}-N-[2-(4-chlorophenyl)-4-methylpentyl] imidazo[1,2-a] pyridine-5-carboxamide]
< 2000 | O=C(NCC1(c2ccc(C(F)(F)F)cc2)CCCCC1)c1cccc2nc(CC(=O)N3CCn4cncc4C3)cn12 [Compound 879, 2-[2-(5,6-dihydroimidazo[1,5-a]pyrazin-7(8H)-yl)-2-oxoethyl]-N-({1-[4-(trifluoromethyl)phenyl]cyclohexyl}methyl) imidazo[1,2-a] pyridine-5-carboxamide]

same assay, conditions: P2X7 calcium mobilization, Example 4A; 50% decrease in the fluorescence response of cells exposed to 80 μM of (2′(3′)-O-(4-benzoyl-benzoyl)adenosine 5′-triphosephate); read-out: IC50

IC50 [nM] | SMILES
< 2000 | O=C(NCC1(c2ccc(Cl)c(F)c2)CCCCC1)c1cccc2nc(CN3CCCC3)cn12 [Compound 1046, N-{[1-(4-chloro-3-fluorophenyl)cyclohexyl]methyl}-2-(pyrrolidin-1-ylmethyl) imidazo[1,2-a]pyridine-5-carboxamide]

same assay, conditions: SH-SY5Y cells; 50% decrease in fluorescence response to 80 μM BzATP; read-out: IC50

IC50 [nM] | SMILES
< 2000 | COCC1CCN(C(=O)Cc2cn3c(C(=O)NCC45CC6CC(CC(C6)C4)C5)cccc3n2)CC1 [Compound 34, N-(adamantan-1-ylmethyl)-2-{2-[4-(methoxy-methyl)piperidin-1-yl]-2-oxoethyl}imidazo[1,2-a]pyridine-5-carboxamide]
< 2000 | O=C(Cc1cn2c(C(=O)NCC34CC5CC(CC(C5)C3)C4)cccc2n1)NN1CCCCCC1 [Compound 163, N-(adamantan-1-ylmethyl)-2-[2-(azepan-1-ylamino)-2-oxoethyl]imidazo[1,2-a]pyridine-5-carboxamide]
< 2000 | CC(NC(=O)Cc1cn2c(C(=O)NCC34CC5CC(CC(C5)C3)C4)cccc2n1)C(N)=O (stereo not drawn) [Compound 25, N-(adamantan-1-ylmethyl)-2-{2-[(2-amino-1-methyl-2-oxoethyl)amino]-2-oxoethyl}imidazo[1,2-a]pyridine-5-carboxamide]
< 2000 | O=C(NCC12CC3CC(CC(C3)C1)C2)c1cccc2nc(CCNC3CCNCC3)cn12 [Compound 119, 2-[2-(piperidin-4-ylamino)-ethyl]-imidazo[1,2-a]pyridine-5-carboxylic acid (adamantan-1-ylmethyl)-amide]
< 2000 | CCC(=O)NC1CCN(C(=O)Cc2cn3c(C(=O)NCC45CC6CC(CC(C6)C4)C5)cccc3n2)CC1 [Compound 183, N-(adamantan-1-ylmethyl)-2-{2-oxo-2-[4-(propionylamino)piperidin-1-yl]ethyl}imidazo[1,2-a]pyridine-5-carboxamide]
< 2000 | N[C@@H]1CCN(Cc2cn3c(C(=O)NCC45CC6CC(CC(C6)C4)C5)cccc3n2)C1 [Compound 69, N-(adamantan-1-ylmethyl)-2-{[(3R)-3-aminopyrrolidin-1-yl]methyl}imidazo[1,2-a]pyridine-5-carboxamide]

same assay, conditions: fluorescence response of cells exposed to 80 μM 2′(3′)-O-(4-benzoyl-benzoyl)adenosine 5′-triphosphate; Example 4A; read-out: IC50

IC50 [nM] | SMILES
< 2000 | CCCOCCNC(=O)Cc1cn2c(C(=O)NCC(CC(C)C)c3ccccc3)cccc2n1 (stereo not drawn) [Compound 230, N-(4-methyl-2-phenylpentyl)-2-{2-oxo-2-[(2-propoxyethyl)amino]ethyl}imidazo[1,2-a]pyridine-5-carboxamide]
< 2000 | COCCN(C(=O)c1cn2c(NC(=O)CC34CC5CC(CC(C5)C3)C4)cccc2n1)C(C)C [Compound 379, 5-[(adamantan-1-ylacetyl)amino]-N-isopropyl-N-(2-methoxyethyl)imidazo [1,2-a]pyridine-2-carboxamide]
< 2000 | C[C@@H]1CNCCN1C(=O)c1cn2c(C(=O)NC[C@@H]3CC[C@H]4C[C@@H]3C4(C)C)cccc2n1 [Compound 305, N-{[(1S,2R,5S)-6,6-dimethylbicyclo[3.1.1]hept-2-yl]methyl}-2-{[(2R)-2-methylpiperazin-1-yl]carbonyl}imidazo[1,2-a]pyridine-5-carboxamide]
